Experimental data: patent US20250049812A1, “Compounds that Inhibit Necroptosis and Their Preparation Methods” (SHANGHAI INSTITUTE OF ORGANIC CHEMISTRY, CHINESE ACADEMY OF …, priority 2021, published 2025)

system: Jurkat FADD (−/−) Cells; test: TNF-α induced necroptosis of Jurkat FADD-deficient cells (CellTiter-Glo cell survival); assay type: cell-based, human; details: Homo sapiens; TNF-α induced necroptosis, Jurkat FADD-deficient cells, 13 hours, CellTiter-Glo; read-out: IC50
Method: 1. Cell Activity Testing System (TNF-α Induces the Necroptosis of Jurkat Cells, the Human Leukemia Cells Deficient in FADD).
(1) Cell culture: Jurkat FADD-deficient cells were cultured in an RPMI 1640 medium with 10% fetal bovine serum (FBS), 100 U/mL penicillin, and 100 […]. The cells were cultured in a cell culture incubator at 37° C. with 5% CO2. And all the cells were cryopreserved in a complete medium containing 5-10% DMSO. Medium change and passage were performed 3-4 times per week.
(4) Experimental scheme: The system of TNF-α inducing the necroptosis of Jurkat FADD-deficient cells was used to screen for compounds with RIPKl kinase inhibitory activity.
Jurkat FADD-deficient cells were evenly inoculated into a 384-well plate with each well added with a 40 μL complete culture medium, followed by the addition of 5 μL of the under-testing compound to each well. The initial concentration of the compounds was set at 25 μM (for some compounds with higher activity, the initial concentration was set at 0.5 μM), with a three-fold gradient dilution, totaling 12 gradient points. Three replicate wells were set for each compound. In addition, there was a blank control group and a control group with TNFα stimulation only. After the compound was added, the mixture needed to be centrifuged and incubated in a cell culture incubator at 37° C. containing 5% CO2 for 1 hour. After that, 5 μL of 5 ng/mL TNFα was added to stimulate the occurrence of necroptosis. After centrifugation and mixing, the mixture was placed in the cell culture incubator for 13 hours (until the cell death rate reaches 65% in the group with only TNF-α), with a total volume of 50 μL per well. Then, the steps below were followed to test the cell survival rate.
The CellTiter-Glo® Buffer was removed from the reagent kit, equilibrated to room temperature, and used to dissolve the CellTiter-Glo® Substrate. The CellTiter-Glo® Reagent obtained could be directly used for the experiment.
15 μL of CellTiter-Glo® Reagent which has been equilibrated to room temperature was added to each well, and incubated in the dark for 15 minutes. After that, a microplate reader (Enspire Multimode Plate Reader of PerkinElmer, USA) was used to measure the chemiluminescence.

SMILES	IC50 [nM]
CN1C(=O)C(NC(=O)c2nnc(Cc3ccccc3)[nH]2)Cn2ccc3cccc1c32 (racemic) [T-1, (±)-5-benzyl-N-(1-methyl-2-oxy-1,2,3,4-tetrahydro-[1,4]diazepino [3,2,1-hi]indol-3-yl)-4H-1,2,4-triazole-3-carboxamide]	< 10
CN1C(=O)C(NC(=O)c2ncc(Cc3ccccc3)o2)Cn2ccc3cccc1c32 (racemic) [T-2, (±)-5-benzyl-N-(1-methyl-2-oxy-1,2,3,4-tetrahydro-[1,4]diazepino [3,2,1-hi]indol-3-yl) oxazole-2-carboxamide]	< 10
CN1C(=O)C(NC(=O)c2nnc(Cc3ccccc3)[nH]2)Cn2cc(I)c3cccc1c32 (racemic) [T-3, (±)-5-benzyl-N-(7-iodo-1-methyl-2-oxo-1,2,3,4-tetrahydro-[1,4]diazepino [3,2,1-hi]indol-3-yl)-4H-1,2,4-triazole-3-carboxamide]	10 to 100
CSc1cn2c3c(cccc13)N(C)C(=O)C(NC(=O)c1nnc(Cc3ccccc3)[nH]1)C2 (racemic) [T-4, (±)-5-benzyl-N-(1-methyl-7-(methylthio)-2-carbonyl-1,2,3,4-tetrahydro-[1,4]diazepino [3,2,1-hi]indol-3-yl)-4H-1,2,4-triazole-3-carboxamide]	10 to 100
CN1C(=O)C(NC(=O)c2nnc(Cc3ccccc3)[nH]2)Cn2ccc3cc(Cl)cc1c32 (racemic) [T-5, (±)-5-benzyl-N-(9-chloro-1-methyl-2-oxo-1,2,3,4-tetrahydro-[1,4]diazepino [3,2,1-hi]indol-3-yl)-4H-1,2,4-triazole-3-carboxamide]	100 to 1000
CN1C(=O)C(NC(=O)c2nnc(Cc3ccccc3)[nH]2)Cn2ccc3cc(Br)cc1c32 (racemic) [T-6, (±)-5-benzyl-N-(9-bromo-1-methyl-2-oxo-1,2,3,4-tetrahydro-[1,4]diazepino [3,2,1-hi]indol-3-yl)-4H-1,2,4-triazole-3-carboxamide]	100 to 1000
CN1C(=O)C(NC(=O)c2nnc(Cc3ccccc3)[nH]2)Cn2ccc3cc(F)cc1c32 (racemic) [T-7, (±)-5-benzyl-N-(9-fluoro-1-methyl-2-oxo-1,2,3,4-tetrahydro-[1,4]diazepino [3,2,1-hi]indol-3-yl)-4H-1,2,4-triazole-3-carboxamide]	10 to 100
CN1C(=O)C(NC(=O)c2nnc(Cc3ccccc3)[nH]2)Cn2cc(C#Cc3cnn(C)c3)c3cccc1c32 (racemic) [T-8, (±)-5-benzyl-N-(1-methyl-7-((1-methyl-1H-pyrazol-4-yl)ethynyl)-2-oxy-1,2,3,4-tetrahydro-[1,4]diazepino [3,2,1-hi]indol-3-yl)-4H-1,2,4-triazole-3-carboxamide]	< 10
CN1C(=O)C(NC(=O)c2nnc(Cc3ccccc3)[nH]2)Cn2ccc3cc(C#Cc4cnn(C)c4)cc1c32 (racemic) [T-9, (±)-5-benzyl-N-(1-methyl-9-((1-methyl-1H-pyrazol-4-yl)ethynyl)-2-oxy-1,2,3,4-tetrahydro-[1,4]diazepino [3,2,1-hi]indol-3-yl)-4H-1,2,4-triazole-3-carboxamide]	< 10
CCN1C(=O)C(NC(=O)c2nnc(Cc3ccccc3)[nH]2)Cn2ccc3cccc1c32 (racemic) [T-10, (±)-5-benzyl-N-(1-ethyl-2-oxy-1,2,3,4-tetrahydro-[1,4]diazepino [3,2,1-hi]indol-3-yl)-4H-1,2,4-triazole-3-carboxamide]	10 to 100
CN1C(=O)C(NC(=O)c2nnc(Cc3ccccc3)[nH]2)Cn2cc(Br)c3cccc1c32 (racemic) [T-11, (±)-5-benzyl-N-(7-bromo-1-methyl-2-oxo-1,2,3,4-tetrahydro-[1,4]diazepino [3,2,1-hi]indol-3-yl)-4H-1,2,4-triazole-3-carboxamide]	10 to 100
CCOC(=O)c1cc2cccc3c2n1CC(NC(=O)c1nnc(Cc2ccccc2)[nH]1)C(=O)N3C (racemic) [T-12, (±)-3-(5-benzyl-4H-1,2,4-triazole-3-carboxamido)-1-methyl-2-oxy-1,2,3,4-tetrahydro-[1,4] diazepino [3,2,1-hi] indole-6-carboxylate]	100 to 1000
